Experimental data taken from patent US20240425464A1, “Substituted Monohydrazides as Potent Antifungal Agents” (University of Kentucky Research Foundation, priority 2023, published 2024).
In brackets after ≈: the same amount, converted by molar mass. Where two headings read alike, the source gives them in different places.

What was measured:
Experiment in all cases: MIC determination by in vitro antifungal assay
Type in all cases: cell-based, Candida auris
[1] = tested on: C. auris AR Bank #381
Experimental: (§1) The antifungal agent amphotericin B (AmB) was purchased from VWR (Radnor PA, USA). AmB was dissolved in DMSO at a final concentration of 5 mg/mL and was stored at −20° C., protected from light. Candida albicans American Type Culture Collection (ATCC) 10231 (strain A), C. albicans ATCC 64124 (B), and C. albicans ATCC MYA-2876 (C) were obtained from Utah State University. C. albicans ATCC 90819 (D), C. albicans ATCC MYA-2310 (E), C. albicans ATCC MYA-1237 (F), C. albicans ATCC MYA-1003 (G), Candida glabrata ATCC 2001 (H), Candida krusei ATCC 6258 (I), Candida parapsilosis ATCC 22019 (J), Cryptococcus neoformans ATCC MYA-895 (M), Aspergillus terreus ATCC MYA-3633 (N), and Aspergillus flavus ATCC MYA-3631 (0) were obtained from the American Type Culture Collection (ATCC; Manassas, VA, USA). Aspergillus nidulans ATCC 38163 (P) was obtained from University of Kentucky. Clinically derived Aspergillus fumigatus NRRL 163 (Q), A. fumigatus NRRL 5109 (R), and A. fumigatus NRRL 6113 (S) were obtained from Northern Regional Research Laboratory (NRRL). Candida auris 384 (K), C. auris 390 (L), and fungal strains 381-400 (including 10 C. auris (AR Bank #381-390), 3 Candida duobushaemulonii (AR Bank #391, AR Bank #392, and AR Bank #394), 2 Candida haemulonii (AR Bank #393 and AR Bank #395), 1 Kodameae ohmeri (AR Bank #396), 1 C. krusei (AR Bank #397), 1 Candida lusitaniae (AR Bank #398), and 2 Saccharomyces cerevisiae strains (AR Bank #399 and AR Bank #400)) were part of a larger fungal library from the AR Bank maintained by the Centers for Disease Control and Prevention (CDC; Atlanta, GA, USA). Filamentous fungi and yeasts were cultivated at 35° C. in RPMI 1640 medium (with L-glutamine, without sodium bicarbonate, Sigma-Aldrich, St. Louis, MO) buffered to a pH of 7.0 with 0.165 M morpholinepropanesulfonic acid (MOPS) buffer (Sigma-Aldrich). For cytotoxicity assays, HepG2 and the mouse macrophage cell line J774A.1 were obtained from University of Kentucky. The human embryonic kidney cell line, HEK-293, was bought from the ATCC. Mammalian cells were grown in Dulbecco's Modified Eagle's Medium (DMEM) (from VWR) with 10% fetal bovine serum (FBS) (from VWR) and 1% Pen/Strep (from ATCC). Cell lines were cultured at 37° C. with 5% CO2 and passaged by trypsinization with 0.05% trypsin: 0.53 mM EDTA (from Sigma-Aldrich).
(§2) From the actively growing yeast culture, 100 µL were then transferred to 900 μL of RPMI 1640 medium and re-adjusted to achieve OD600 of 0.12 (˜1×10^6 CFU/mL). The cell suspension was further diluted to achieve 1:100 in RPMI 1640 medium.

[2] = tested on: C. auris AR Bank #382
Experimental: as §1, §2

[3] = tested on: C. auris AR Bank #385
Experimental: as §1, §2

[4] = tested on: C. auris AR Bank #388
Experimental: as §1, §2

[5] = tested on: C. auris AR Bank #389
Experimental: as §1, §2

[6] = tested on: C. auris AR Bank #386
Experimental: as §1, §2

[7] = tested on: C. auris AR Bank #383
Experimental: as §1, §2

[8] = tested on: C. auris AR Bank #387
Experimental: as §1, §2

[9] = Candidozyma auris, C. auris AR Bank # 381 (Table 2B), read-out: MIC
[10] = Candidozyma auris, C. auris AR Bank # 382 (Table 2B), read-out: MIC
[11] = Candidozyma auris, C. auris AR Bank # 385 (Table 2B), read-out: MIC
[12] = Candidozyma auris, C. auris AR Bank # 388 (Table 2B), read-out: MIC
[13] = Candidozyma auris, C. auris AR Bank # 389 (Table 2B), read-out: MIC
[14] = Candidozyma auris, C. auris AR Bank # 386 (Table 2B), read-out: MIC
[15] = Candidozyma auris, C. auris AR Bank # 383 (Table 2B), read-out: MIC
[16] = Candidozyma auris, C. auris AR Bank # 387 (Table 2B), read-out: MIC
[17] = Candidozyma auris, C. auris AR Bank #381, read-out: MIC
[18] = Candidozyma auris, C. auris AR Bank #382, read-out: MIC
[19] = Candidozyma auris, C. auris AR Bank #385, read-out: MIC
[20] = Candidozyma auris, C. auris AR Bank #388, read-out: MIC
[21] = Candidozyma auris, C. auris AR Bank #389, read-out: MIC
[22] = Candidozyma auris, C. auris AR Bank #386, read-out: MIC
[23] = Candidozyma auris, C. auris AR Bank #383, read-out: MIC
[24] = Candidozyma auris, C. auris AR Bank #387, read-out: MIC

| Structure (SMILES) | MIC ([1]; C. auris AR Bank #381) | MIC ([2]; C. auris AR Bank #382) | MIC ([3]; C. auris AR Bank #385) | MIC ([4]; C. auris AR Bank #388) | MIC ([5]; C. auris AR Bank #389) | MIC ([6]; C. auris AR Bank #386) | MIC ([7]; C. auris AR Bank #383) | MIC ([8]; C. auris AR Bank #387) | other results |
| --- | --- | --- | --- | --- | --- | --- | --- | --- | --- |
| C[C@@H]1[C@H](O)[C@@H](C)/C=C/C=C/C=C/C=C/C=C/C=C/C=C/[C@H](O[C@@H]2O[C@H](C)[C@@H](O)[C@H](N)[C@@H]2O)C[C@@H]2O[C@](O)(C[C@@H](O)C[C@@H](O)[C@H](O)CC[C@@H](O)C[C@@H](O)CC(=O)O[C@H]1C)C[C@H](O)[C@H]2C(=O)O [AmB, amphotericin B, reference compound] | 0.98 μg/mL^−1 | 0.98 μg/mL^−1 | 1.95 μg/mL^−1 | 1.95 μg/mL^−1 | 1.95 μg/mL^−1 | 0.98 μg/mL^−1 | 1.95 μg/mL^−1 | 0.98 μg/mL^−1 | MIC ([1]; C. auris AR Bank # 381 (Table 2B)): 0.98 μg/mL^−1; MIC ([2]; C. auris AR Bank # 382 (Table 2B)): 0.98 μg/mL^−1; MIC ([3]; C. auris AR Bank # 385 (Table 2B)): 1.95 μg/mL^−1; MIC ([4]; C. auris AR Bank # 388 (Table 2B)): 1.95 μg/mL^−1; MIC ([5]; C. auris AR Bank # 389 (Table 2B)): 1.95 μg/mL^−1; MIC ([6]; C. auris AR Bank # 386 (Table 2B)): 0.98 μg/mL^−1; MIC ([7]; C. auris AR Bank # 383 (Table 2B)): 1.95 μg/mL^−1; MIC ([8]; C. auris AR Bank # 387 (Table 2B)): 0.98 μg/mL^−1 |
| O=C(NNc1cccc(Cl)c1)c1ccc(F)cc1F [Compound 1b] | – | – | – | – | – | – | – | – | MIC [1, 9]: 3.9 µg/mL (≈ 13.8 µM); MIC [2, 10]: 3.9 µg/mL (≈ 13.8 µM); MIC [3, 11]: 3.9 µg/mL (≈ 13.8 µM); MIC [4, 12]: 3.9 µg/mL (≈ 13.8 µM); MIC [5, 13]: 3.9 µg/mL (≈ 13.8 µM); MIC [6, 14]: 7.8 µg/mL (≈ 27.6 µM); MIC [7, 15]: 15.6 µg/mL (≈ 55.2 µM); MIC [8, 16]: 7.8 µg/mL (≈ 27.6 µM) |
| O=C(NNc1cc(Cl)cc(Cl)c1)c1ccc(F)cc1F [Compound 1j] | – | – | – | – | – | – | – | – | MIC [1, 9]: > 31.3 µg/mL; MIC [2, 10]: 15.6 µg/mL (≈ 49.2 µM); MIC [3, 11]: 31.3 µg/mL (≈ 98.7 µM); MIC [4, 12]: > 31.3 µg/mL; MIC [5, 13]: > 31.3 µg/mL; MIC [6, 14]: > 31.3 µg/mL; MIC [7, 15]: > 31.3 µg/mL; MIC [8, 16]: > 31.3 µg/mL |
| O=C(NNc1cccc(F)c1)c1ccccn1 [Compound 2a] | 0.49 μg/mL^−1 | 0.98 μg/mL^−1 | 0.98 μg/mL^−1 | 0.49 μg/mL^−1 | 0.12 μg/mL^−1 | 0.49 μg/mL^−1 | 1.95 μg/mL^−1 | 0.49 μg/mL^−1 | – |
| O=C(NNc1cccc(Cl)c1)c1ccccn1 [Compound 2b] | 0.98 μg/mL^−1 | 0.49 μg/mL^−1 | 0.49 μg/mL^−1 | 0.49 μg/mL^−1 | 0.49 μg/mL^−1 | 0.24 μg/mL^−1 | 0.49 μg/mL^−1 | 0.49 μg/mL^−1 | – |
| COc1cccc(NNC(=O)c2ccccn2)c1 [Compound 2c] | 3.9 μg/mL^−1 | 0.98 μg/mL^−1 | 3.9 μg/mL^−1 | 3.9 μg/mL^−1 | 0.49 μg/mL^−1 | 0.49 μg/mL^−1 | 0.98 μg/mL^−1 | 0.49 μg/mL^−1 | – |
| O=C(NNc1ccc(F)cc1)c1ccccn1 [Compound 2d] | – | – | – | – | – | – | – | – | MIC [1, 17]: 0.98 µg/mL (≈ 4.24 µM); MIC [2, 18]: 1.95 µg/mL (≈ 8.43 µM); MIC [3, 19]: 0.98 µg/mL (≈ 4.24 µM); MIC [4, 20]: 0.98 µg/mL (≈ 4.24 µM); MIC [5, 21]: 0.49 µg/mL (≈ 2.12 µM); MIC [6, 22]: 0.49 µg/mL (≈ 2.12 µM); MIC [7, 23]: 1.95 µg/mL (≈ 8.43 µM); MIC [8, 24]: 0.98 µg/mL (≈ 4.24 µM) |
| O=C(NNc1ccc(Cl)cc1)c1ccccn1 [Compound 2e] | 1.95 μg/mL^−1 | 3.9 μg/mL^−1 | 1.95 μg/mL^−1 | 1.95 μg/mL^−1 | 0.98 μg/mL^−1 | 0.98 μg/mL^−1 | 1.95 μg/mL^−1 | 1.95 μg/mL^−1 | – |
| COc1ccc(NNC(=O)c2ccccn2)cc1 [Compound 2f] | – | – | – | – | – | – | – | – | MIC [1, 17]: 1.95 µg/mL (≈ 8.02 µM); MIC [2, 18]: 1.95 µg/mL (≈ 8.02 µM); MIC [3, 19]: 0.98 µg/mL (≈ 4.03 µM); MIC [4, 20]: 0.49 µg/mL (≈ 2.01 µM); MIC [5, 21]: 0.24 µg/mL (≈ 0.987 µM); MIC [6, 22]: 0.24 µg/mL (≈ 0.987 µM); MIC [7, 23]: 1.95 µg/mL (≈ 8.02 µM); MIC [8, 24]: 0.49 µg/mL (≈ 2.01 µM) |
